Results from PubChem BioAssay (NCI).
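Growth conditions: 96-well plates. Treatment: test compound, 48 hours, 5 concentrations. Analysis: linear interpolation between bracketing concentrations; unreached endpoints set to highest concentration. TGI denotes the concentration required for complete inhibition of growth.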

The compounds below were run on OVCAR-5 ovarian (assay: NCI tumour cell line growth inhibition, 48 h).

Question: Which TGI does the source give for `COc1cc(C[S+]2CCCC2)c(SC)cc1C[S+]1CCCC1` here?
Answer: Its TGI is over 100 µM.

Question: For `C[C@]12C=CC(=O)C=C1CC[C@H]1[C@@H]3C[C@@H](O)[C@](O)(C(=O)CO)[C@@]3(C)C[C@H](O)[C@@]12F`, which TGI is on record?
Answer: Its TGI is over 100 µM.

Question: For `Oc1ccc2ccccc2c1/C=C/c1ccc2c(Br)cc(Br)c(O)c2n1`, which TGI is on record?
Answer: Its TGI is 21.7 µM.

Question: `COc1ccc2nc3ccc(OC)cc3c(S(=O)CCCl)c2c1` (centres undefined) was tested. Which TGI did it give?
Answer: The TGI was 34.5 µM.

Question: How did the TGI turn out when `COc1ccc(C2CC(=O)CC(c3ccc(OC)cc3)C23C(=O)NC(=O)NC3=O)cc1` (centres undefined) was run?
Answer: Its TGI is over 100 µM.

Question: For `O=[N+]([O-])c1ccc(/C=N/n2c(CO)nc3ccccc32)o1`, which TGI is on record?
Answer: Its TGI is 24.7 µM.

What follows are compounds tested on PC-3 prostate (assay: NCI tumour cell line growth inhibition, 48 h).

Question: How did the TGI turn out when `Oc1ccc2ccccc2c1/C=C/c1ccc2c(Br)cc(Br)c(O)c2n1` was run?
Answer: The TGI was 18.9 µM.

Question: `COc1ccc2nc3ccc(OC)cc3c(S(=O)CCCl)c2c1` (centres undefined) was tested. Which TGI did it give?
Answer: The TGI was 23.4 µM.

Question: How did the TGI turn out when `COc1ccc(C2CC(=O)CC(c3ccc(OC)cc3)C23C(=O)NC(=O)NC3=O)cc1` (centres undefined) was run?
Answer: The TGI was over 100 µM.

Question: Which TGI does the source give for `O=[N+]([O-])c1ccc(/C=N/n2c(CO)nc3ccccc32)o1` here?
Answer: The TGI was 26.1 µM.

These compounds were tested on RXF 393 renal (assay: NCI tumour cell line growth inhibition, 48 h).

Question: How did the TGI turn out when `COc1cc(C[S+]2CCCC2)c(SC)cc1C[S+]1CCCC1` was run?
Answer: Its TGI is over 100 µM.

Question: `C[C@]12C=CC(=O)C=C1CC[C@H]1[C@@H]3C[C@@H](O)[C@](O)(C(=O)CO)[C@@]3(C)C[C@H](O)[C@@]12F` was tested. Which TGI did it give?
Answer: Its TGI is over 100 µM.

Question: Which TGI does the source give for `Oc1ccc2ccccc2c1/C=C/c1ccc2c(Br)cc(Br)c(O)c2n1` here?
Answer: Its TGI is 24.7 µM.

Question: How did the TGI turn out when `COc1ccc2nc3ccc(OC)cc3c(S(=O)CCCl)c2c1` (centres undefined) was run?
Answer: The TGI was 16.2 µM.

Question: For `COc1ccc(C2CC(=O)CC(c3ccc(OC)cc3)C23C(=O)NC(=O)NC3=O)cc1` (centres undefined), which TGI is on record?
Answer: The TGI was over 100 µM.

Question: Which TGI does the source give for `O=[N+]([O-])c1ccc(/C=N/n2c(CO)nc3ccccc32)o1` here?
Answer: Its TGI is 18.3 µM.

The compounds below were run on SF-539 CNS (assay: NCI tumour cell line growth inhibition, 48 h).

Question: Which TGI does the source give for `O=C(c1ccc(O)cc1)C1c2c3c(cc(O)c2C(c2ccc(O)cc2)C1c1cc(O)cc(O)c1)OC(c1ccc(O)cc1)C3c1cc2c(cc1O)OC(c1ccc(O)cc1)C2c1cc(O)cc(O)c1` (centres undefined) here?
Answer: Its TGI is over 12.5 µM.

Question: For `COc1cc(C[S+]2CCCC2)c(SC)cc1C[S+]1CCCC1`, which TGI is on record?
Answer: Its TGI is over 100 µM.

Question: For `C[C@]12C=CC(=O)C=C1CC[C@H]1[C@@H]3C[C@@H](O)[C@](O)(C(=O)CO)[C@@]3(C)C[C@H](O)[C@@]12F`, which TGI is on record?
Answer: Its TGI is over 100 µM.

Question: Which TGI does the source give for `Oc1ccc2ccccc2c1/C=C/c1ccc2c(Br)cc(Br)c(O)c2n1` here?
Answer: The TGI was 13.6 µM.

Question: Which TGI does the source give for `COc1ccc2nc3ccc(OC)cc3c(S(=O)CCCl)c2c1` (centres undefined) here?
Answer: Its TGI is 4.59 µM.

Question: How did the TGI turn out when `COc1ccc(C2CC(=O)CC(c3ccc(OC)cc3)C23C(=O)NC(=O)NC3=O)cc1` (centres undefined) was run?
Answer: The TGI was over 100 µM.

Question: Which TGI does the source give for `O=[N+]([O-])c1ccc(/C=N/n2c(CO)nc3ccccc32)o1` here?
Answer: The TGI was 55 µM.

The compounds below were run on SK-MEL-28 melanoma (assay: NCI tumour cell line growth inhibition, 48 h).

Question: How did the TGI turn out when `O=C(c1ccc(O)cc1)C1c2c3c(cc(O)c2C(c2ccc(O)cc2)C1c1cc(O)cc(O)c1)OC(c1ccc(O)cc1)C3c1cc2c(cc1O)OC(c1ccc(O)cc1)C2c1cc(O)cc(O)c1` (centres undefined) was run?
Answer: The TGI was over 12.5 µM.

Question: `COc1cc(C[S+]2CCCC2)c(SC)cc1C[S+]1CCCC1` was tested. Which TGI did it give?
Answer: The TGI was over 100 µM.

Question: How did the TGI turn out when `C[C@]12C=CC(=O)C=C1CC[C@H]1[C@@H]3C[C@@H](O)[C@](O)(C(=O)CO)[C@@]3(C)C[C@H](O)[C@@]12F` was run?
Answer: The TGI was over 100 µM.

Question: `Oc1ccc2ccccc2c1/C=C/c1ccc2c(Br)cc(Br)c(O)c2n1` was tested. Which TGI did it give?
Answer: The TGI was 31.8 µM.

Question: How did the TGI turn out when `COc1ccc2nc3ccc(OC)cc3c(S(=O)CCCl)c2c1` (centres undefined) was run?
Answer: The TGI was 12.4 µM.

Question: How did the TGI turn out when `COc1ccc(C2CC(=O)CC(c3ccc(OC)cc3)C23C(=O)NC(=O)NC3=O)cc1` (centres undefined) was run?
Answer: The TGI was 43.7 µM.

Question: `O=[N+]([O-])c1ccc(/C=N/n2c(CO)nc3ccccc32)o1` was tested. Which TGI did it give?
Answer: Its TGI is 12.6 µM.

The compounds below were run on SN12C renal (assay: NCI tumour cell line growth inhibition, 48 h).

Question: For `O=C(c1ccc(O)cc1)C1c2c3c(cc(O)c2C(c2ccc(O)cc2)C1c1cc(O)cc(O)c1)OC(c1ccc(O)cc1)C3c1cc2c(cc1O)OC(c1ccc(O)cc1)C2c1cc(O)cc(O)c1` (centres undefined), which TGI is on record?
Answer: The TGI was over 12.5 µM.

Question: How did the TGI turn out when `COc1cc(C[S+]2CCCC2)c(SC)cc1C[S+]1CCCC1` was run?
Answer: Its TGI is over 100 µM.

Question: Which TGI does the source give for `C[C@]12C=CC(=O)C=C1CC[C@H]1[C@@H]3C[C@@H](O)[C@](O)(C(=O)CO)[C@@]3(C)C[C@H](O)[C@@]12F` here?
Answer: The TGI was over 100 µM.

Question: For `Oc1ccc2ccccc2c1/C=C/c1ccc2c(Br)cc(Br)c(O)c2n1`, which TGI is on record?
Answer: Its TGI is 20.9 µM.

Question: `COc1ccc2nc3ccc(OC)cc3c(S(=O)CCCl)c2c1` (centres undefined) was tested. Which TGI did it give?
Answer: The TGI was 3.72 µM.

Question: With `COc1ccc(C2CC(=O)CC(c3ccc(OC)cc3)C23C(=O)NC(=O)NC3=O)cc1` (centres undefined) as the compound, how does the TGI read?
Answer: Its TGI is 97.9 µM.

Question: How did the TGI turn out when `O=[N+]([O-])c1ccc(/C=N/n2c(CO)nc3ccccc32)o1` was run?
Answer: Its TGI is 18.1 µM.

Each compound was assayed on SNB-19 CNS (assay: NCI tumour cell line growth inhibition, 48 h).

Question: With `O=C(c1ccc(O)cc1)C1c2c3c(cc(O)c2C(c2ccc(O)cc2)C1c1cc(O)cc(O)c1)OC(c1ccc(O)cc1)C3c1cc2c(cc1O)OC(c1ccc(O)cc1)C2c1cc(O)cc(O)c1` (centres undefined) as the compound, how does the TGI read?
Answer: Its TGI is over 12.5 µM.

Question: `C[C@]12C=CC(=O)C=C1CC[C@H]1[C@@H]3C[C@@H](O)[C@](O)(C(=O)CO)[C@@]3(C)C[C@H](O)[C@@]12F` was tested. Which TGI did it give?
Answer: Its TGI is over 100 µM.

Question: Which TGI does the source give for `Oc1ccc2ccccc2c1/C=C/c1ccc2c(Br)cc(Br)c(O)c2n1` here?
Answer: Its TGI is 25.1 µM.

Question: For `COc1ccc2nc3ccc(OC)cc3c(S(=O)CCCl)c2c1` (centres undefined), which TGI is on record?
Answer: Its TGI is over 59.3 µM.

Question: With `COc1ccc(C2CC(=O)CC(c3ccc(OC)cc3)C23C(=O)NC(=O)NC3=O)cc1` (centres undefined) as the compound, how does the TGI read?
Answer: Its TGI is over 100 µM.

Question: With `O=[N+]([O-])c1ccc(/C=N/n2c(CO)nc3ccccc32)o1` as the compound, how does the TGI read?
Answer: The TGI was 30.7 µM.

The compounds below were run on SNB-75 CNS (assay: NCI tumour cell line growth inhibition, 48 h).

Question: How did the TGI turn out when `O=C(c1ccc(O)cc1)C1c2c3c(cc(O)c2C(c2ccc(O)cc2)C1c1cc(O)cc(O)c1)OC(c1ccc(O)cc1)C3c1cc2c(cc1O)OC(c1ccc(O)cc1)C2c1cc(O)cc(O)c1` (centres undefined) was run?
Answer: Its TGI is over 12.5 µM.

Question: `COc1cc(C[S+]2CCCC2)c(SC)cc1C[S+]1CCCC1` was tested. Which TGI did it give?
Answer: The TGI was over 100 µM.

Question: Which TGI does the source give for `C[C@]12C=CC(=O)C=C1CC[C@H]1[C@@H]3C[C@@H](O)[C@](O)(C(=O)CO)[C@@]3(C)C[C@H](O)[C@@]12F` here?
Answer: The TGI was over 100 µM.

Question: `Oc1ccc2ccccc2c1/C=C/c1ccc2c(Br)cc(Br)c(O)c2n1` was tested. Which TGI did it give?
Answer: The TGI was 30.8 µM.

Question: How did the TGI turn out when `COc1ccc2nc3ccc(OC)cc3c(S(=O)CCCl)c2c1` (centres undefined) was run?
Answer: The TGI was 33.1 µM.

Question: `COc1ccc(C2CC(=O)CC(c3ccc(OC)cc3)C23C(=O)NC(=O)NC3=O)cc1` (centres undefined) was tested. Which TGI did it give?
Answer: Its TGI is 67.1 µM.

Question: `O=[N+]([O-])c1ccc(/C=N/n2c(CO)nc3ccccc32)o1` was tested. Which TGI did it give?
Answer: The TGI was 57.1 µM.

The compounds below were run on UACC-257 melanoma (assay: NCI tumour cell line growth inhibition, 48 h).

Question: With `O=C(c1ccc(O)cc1)C1c2c3c(cc(O)c2C(c2ccc(O)cc2)C1c1cc(O)cc(O)c1)OC(c1ccc(O)cc1)C3c1cc2c(cc1O)OC(c1ccc(O)cc1)C2c1cc(O)cc(O)c1` (centres undefined) as the compound, how does the TGI read?
Answer: The TGI was over 12.5 µM.

Question: With `COc1cc(C[S+]2CCCC2)c(SC)cc1C[S+]1CCCC1` as the compound, how does the TGI read?
Answer: The TGI was over 100 µM.

Question: Which TGI does the source give for `C[C@]12C=CC(=O)C=C1CC[C@H]1[C@@H]3C[C@@H](O)[C@](O)(C(=O)CO)[C@@]3(C)C[C@H](O)[C@@]12F` here?
Answer: Its TGI is over 100 µM.

Question: Which TGI does the source give for `Oc1ccc2ccccc2c1/C=C/c1ccc2c(Br)cc(Br)c(O)c2n1` here?
Answer: Its TGI is 22.9 µM.

Question: How did the TGI turn out when `COc1ccc2nc3ccc(OC)cc3c(S(=O)CCCl)c2c1` (centres undefined) was run?
Answer: Its TGI is 5.38 µM.

Question: Which TGI does the source give for `COc1ccc(C2CC(=O)CC(c3ccc(OC)cc3)C23C(=O)NC(=O)NC3=O)cc1` (centres undefined) here?
Answer: Its TGI is over 100 µM.

Question: For `O=[N+]([O-])c1ccc(/C=N/n2c(CO)nc3ccccc32)o1`, which TGI is on record?
Answer: Its TGI is 6.25 µM.

What follows are compounds tested on UACC-62 melanoma (assay: NCI tumour cell line growth inhibition, 48 h).

Question: How did the TGI turn out when `O=C(c1ccc(O)cc1)C1c2c3c(cc(O)c2C(c2ccc(O)cc2)C1c1cc(O)cc(O)c1)OC(c1ccc(O)cc1)C3c1cc2c(cc1O)OC(c1ccc(O)cc1)C2c1cc(O)cc(O)c1` (centres undefined) was run?
Answer: The TGI was over 12.5 µM.

Question: With `COc1cc(C[S+]2CCCC2)c(SC)cc1C[S+]1CCCC1` as the compound, how does the TGI read?
Answer: The TGI was over 100 µM.

Question: How did the TGI turn out when `C[C@]12C=CC(=O)C=C1CC[C@H]1[C@@H]3C[C@@H](O)[C@](O)(C(=O)CO)[C@@]3(C)C[C@H](O)[C@@]12F` was run?
Answer: The TGI was over 100 µM.

Question: How did the TGI turn out when `Oc1ccc2ccccc2c1/C=C/c1ccc2c(Br)cc(Br)c(O)c2n1` was run?
Answer: Its TGI is 24.2 µM.

Question: `COc1ccc2nc3ccc(OC)cc3c(S(=O)CCCl)c2c1` (centres undefined) was tested. Which TGI did it give?
Answer: Its TGI is 32.1 µM.

Question: Which TGI does the source give for `COc1ccc(C2CC(=O)CC(c3ccc(OC)cc3)C23C(=O)NC(=O)NC3=O)cc1` (centres undefined) here?
Answer: Its TGI is over 100 µM.

Question: For `O=[N+]([O-])c1ccc(/C=N/n2c(CO)nc3ccccc32)o1`, which TGI is on record?
Answer: The TGI was 21.9 µM.
